Experimental data taken from US20110082133A1, “PYRIDONE COMPOUNDS” (priority 2008, published 2011).
Structures can show the parent of a compound that is named as a salt.

Assays:
[1] = molecular target: T1, rat EP1 receptor (Rattus norvegicus, UniProt P70597); assay: Rat EP1 receptor agonistic/antagonistic action (intracellular Ca2+, FLIPR, HEK293 stable expression cells); assay type: cell-based; settings: inhibition of intracellular Ca2+ increasing action by PGE2
T1 construct: expressed in transfected cells
T1 sequence (P70597 1-405): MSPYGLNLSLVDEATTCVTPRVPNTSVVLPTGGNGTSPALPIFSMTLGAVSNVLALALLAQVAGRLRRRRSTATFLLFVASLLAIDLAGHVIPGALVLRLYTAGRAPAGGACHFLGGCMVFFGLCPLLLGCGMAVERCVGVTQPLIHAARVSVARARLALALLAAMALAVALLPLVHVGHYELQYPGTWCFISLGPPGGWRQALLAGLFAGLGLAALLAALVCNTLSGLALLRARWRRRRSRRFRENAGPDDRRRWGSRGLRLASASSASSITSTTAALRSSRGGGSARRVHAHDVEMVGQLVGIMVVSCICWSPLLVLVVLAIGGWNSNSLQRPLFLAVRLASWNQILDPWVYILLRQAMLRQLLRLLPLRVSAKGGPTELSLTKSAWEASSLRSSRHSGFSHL
Protocol: Using rat EP1 or rat EP3β receptor stable expression cells, the intracellular Ca^2+ concentration was measured using a fluorescent imaging plate reader (FLIPR manufactured by Molecular Devices Corporation). The agonistic activity was evaluated by the intracellular Ca^2+ increasing action of the test compound, and the antagonistic activity was evaluated by the inhibiting action of the test compound on the intracellular Ca^2+ increasing action by PGE2.
The cDNA of the rat EP 1 or EP3β receptor was subcloned into an expression vector (pcDNA3.1-V5-His-topo, manufactured by Invitrogen Corporation). This expression vector was introduced into HEK293 cells (American Type Culture Collection) to prepare a rat EP1 or EP3β receptor stable expression cell line. These cells were seeded onto a 96-well poly-D-lysin treated black wall clear bottom plate (manufactured by Becton, Dickinson and Company) at 2 to 3×10^4 cell/well, and used for the experiment the next day. The measurement of the intracellular Ca^2+ concentration was carried out by an FLIPR calcium 3 assay kit (manufactured by Molecular Devices Corporation). The culture medium of each well was removed by suction and replaced with a loading buffer (Hank's balanced salt solution containing 20 mM HEPES-NaOH (pH 7.4), 2.5 mM Probenecid, 0.1% bovine serum albumin, and a color), followed by incubating at room temperature for 3 hours and loading a color. For the evaluation of the agonistic action, the change in the intracellular Ca^2+ concentration was determined from the difference in the maximum value of the intracellular Ca^2+ concentration after the addition of the test compound and the value before the addition of the test compound. For the evaluation of the antagonistic action, after incubating the test compound for 5 minutes, PGE2 was added thereto to determine the change in the intracellular Ca^2+ concentration by PGE2.
Further, NE means that the action has no significance.

[2] = molecular target: T2, rat EP2 receptor (Rattus norvegicus, UniProt Q62928); assay: Rat EP2 receptor agonistic/antagonistic action (cAMP assay, CHO-K1 stable expression cells); assay type: cell-based; settings: cAMP increasing action, 1 μM PGE2 taken as 100%, NE means that the action has no significance
T2 construct: expressed in transfected cells
T2 sequence (Q62928 whole entry): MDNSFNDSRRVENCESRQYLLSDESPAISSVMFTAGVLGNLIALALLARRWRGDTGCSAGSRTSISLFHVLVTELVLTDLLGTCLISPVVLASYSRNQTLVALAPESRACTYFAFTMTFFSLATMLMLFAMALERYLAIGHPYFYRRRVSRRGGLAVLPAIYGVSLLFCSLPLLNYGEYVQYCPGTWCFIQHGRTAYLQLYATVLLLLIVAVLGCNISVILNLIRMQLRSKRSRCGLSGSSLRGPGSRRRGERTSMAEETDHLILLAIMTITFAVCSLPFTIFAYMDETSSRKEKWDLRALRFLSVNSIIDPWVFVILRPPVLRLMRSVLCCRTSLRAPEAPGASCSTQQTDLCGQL
Protocol: For a rat EP2 receptor, stable expression cells were used to carry out a cAMP assay. The agonistic activity was evaluated by the cAMP increasing action by the test compound, and the antagonistic activity was evaluated by the inhibiting action of the test compound on the cAMP increasing action by PGE2.
The rat EP2 receptor cDNA was subcloned into an expression vector (pcDNA3.1-V5-His-topo, manufactured by Invitrogen Corporation). This expression vector was introduced into CHO-K1 cells (American Type Culture Collection) to prepare a rat EP2 receptor stable expression cell line. These cells were seeded onto a 96-well microplate at 0.5×10^4 cell/well, and used for the experiment the next day. The culture medium of each well was removed by suction, 100 μL/well of an assay culture medium (α-MEM containing 2 μM indomethacin and 0.1% bovine serum albumin) was added thereto, and incubated at 37° C. for 1 hour. The culture medium was removed again by suction, and replaced with 100 μL/well of an assay culture medium containing a test compound and 1 mM IBMX. […] Using a cAMP femto 2 kit (manufactured by Cis Bio International), the cAMP concentration in the cell lysate was measured. In this connection, the cAMP increasing action (%) was calculated with the cAMP increasing action by 1 μM PGE2 was taken as 100%.

Row | IC50 [1] | Rat EP2 Agonistic Action 10 μM [2] | Compound
1 | 1000 nM |  | O=C(O)c1ccc(CCn2c(CN3CCc4ccc(F)cc43)c(Cl)cc(Cl)c2=O)cc1 [Example 9, 4-(2-{3,5-dichloro-6-[(6-fluoro-2,3-dihydro-1H-indol-1-yl)methyl]-2-oxopyridin-1(21-1)-yl}ethyl)benzoic acid]
2 | > 10000 nM |  | O=C(O)c1ccc(CCn2c(CNc3cccc(OC(F)(F)F)c3)c(Cl)cc(Cl)c2=O)cc1 [Example 107]
3 | 2100 nM | 14% | CCC[C@H]1CCCN1Cc1c(Cl)cc(Cl)c(=O)n1CCc1ccc(C(=O)O)cc1 [Example 17, 4-{2-[3,5-dichloro-2-oxo-6-{[(2S)-2-propylpyrrolidin-1-yl]methyl}pyridin-1(2H)-yl]ethyl}benzoic acid trifluoroacetate]
4 | 2700 nM | 19% | CN(Cc1c(Cl)cc(Cl)c(=O)n1CCc1ccc(C(=O)O)cc1)c1cccc(Cl)c1 [Example 160]
